The values that follow come from patent EP4722212A1, “NOVEL COMPOUND FOR INHIBITING PROTEIN KINASES AND PHARMACEUTICAL COMPOSITION COMPRISING SAME” (Magicbullettherapeutics Co., Ltd., priority 2023, dated 2024).

One experiment has as its target T1, ACK1 (Homo sapiens, UniProt Q07912).
T1 construct: purchased Reaction Biology (RBC)
Nature of the experiment: Enzyme activity inhibition (Reaction Biology). Format: biochemical. As to the method: (§1) [* <10 nM: A, <100 nM: B, >100 nM: C]. [Table 7]

In a further experiment the target is T2, BMX (Homo sapiens, UniProt P51813).
T2 construct: purchased Reaction Biology (RBC)
T2 sequence (P51813 1-675): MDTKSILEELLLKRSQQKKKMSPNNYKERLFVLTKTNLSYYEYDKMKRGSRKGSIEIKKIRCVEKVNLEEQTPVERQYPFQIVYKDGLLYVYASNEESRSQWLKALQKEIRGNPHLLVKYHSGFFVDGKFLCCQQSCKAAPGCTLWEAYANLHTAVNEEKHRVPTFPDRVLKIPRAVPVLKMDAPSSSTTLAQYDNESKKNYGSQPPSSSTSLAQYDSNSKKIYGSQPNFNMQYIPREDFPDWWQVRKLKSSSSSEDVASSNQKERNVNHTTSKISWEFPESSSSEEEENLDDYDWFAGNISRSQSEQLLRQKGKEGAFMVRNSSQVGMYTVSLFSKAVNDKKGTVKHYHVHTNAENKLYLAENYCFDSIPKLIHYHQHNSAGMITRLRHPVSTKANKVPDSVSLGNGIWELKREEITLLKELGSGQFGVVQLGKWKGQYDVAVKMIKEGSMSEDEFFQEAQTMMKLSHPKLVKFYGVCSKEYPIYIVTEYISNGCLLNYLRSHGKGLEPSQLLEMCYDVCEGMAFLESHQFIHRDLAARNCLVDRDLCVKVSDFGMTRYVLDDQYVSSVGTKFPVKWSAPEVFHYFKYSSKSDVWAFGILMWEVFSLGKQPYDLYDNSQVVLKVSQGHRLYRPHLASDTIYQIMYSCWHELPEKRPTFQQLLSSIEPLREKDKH
Nature of the experiment: Enzyme activity inhibition (Reaction Biology). Format: biochemical. The protocol:
as §1

The next experiment concerns the target T3, Src (Homo sapiens, UniProt P12931).
T3 construct: purchased Reaction Biology (RBC)
In words: Enzyme activity inhibition (Reaction Biology). Format: biochemical. As to the method:
as §1

Another experiment has as its system A172. In words: Cell line inhibition analysis (CCK-8, 72 h). Format: cell-based. The following applies: Homo sapiens, A 172; read-out: Cell growth inhibition GI50 A172. As to the method:
(§2) C4-2B and 22Rv1 cells were purchased from ATCC and cultured according to the manufacturer's instructions. The cells were seeded in 96-well plates at 7×10^3cells/100 µl/well and allowed to attach for one day. After removing the culture medium, 90 µl/well of fresh culture medium was added, followed by addition of 10 µl/well of culture medium containing compounds at nine concentrations (0.076-500 µM) serially diluted 3-fold and DMSO control to achieve final concentrations of 0-50 µM, and then cultured for 72 hours in a 37 °C CO2 incubator. Cell proliferation after 72 hours was assessed by adding 10 µl/well of CCK-8 solution, orbital shaking for 30 seconds, then incubating at 37 °C CO2 incubator for 2 hours and measuring absorbance at 450 nm using a microplate reader. The measured absorbance values were corrected by subtracting the absorbance of wells containing only culture medium and CCK-8 solution, and GI50 values were calculated using GraphPad Prism 8 software.
(§3) Meanwhile, in a separate 96-well plate, cells were seeded at 7 × 10^3 cells/100 µl/well, allowed to attach for one day, CCK-8 solution was added, and absorbance was measured to establish the 'Growth (%) = 0' value.
(§4) Furthermore, experiments were conducted on A172, A549, HCI-H460, AsPC-1, MIA-Paca-2, DLD-1, HCT-116, HT-29, SW480, SW620, MDA-MB-231, and SKOV3 cell lines using the same method, with results shown in Tables 9 and 10 below [* <1 µM: A, <5 µM: B, <10 µM: C, >10 µM: D].

The test system of another experiment is A549. Nature of the experiment: Cell line inhibition analysis (CCK-8, 72 h). The settings on record: Homo sapiens, read-out: Cell growth inhibition GI50 A549. Format: cell-based. As to the method: as §2, §3, §4
Another experiment relates to AsPC-1. In words: Cell line inhibition analysis (CCK-8, 72 h). The following applies: Homo sapiens, ASPC1; read-out: Cell growth inhibition GI50 AsPC-1. Format: cell-based. As to the method:
as §2, §3, §4

The next experiment has as its system DLD-1. Nature of the experiment: Cell line inhibition analysis (CCK-8, 72 h). Format: cell-based. The settings on record: Homo sapiens, read-out: Cell growth inhibition GI50 DLD-1. The protocol:
as §2, §3, §4

The subject of a further experiment is HCI-H460. In words: Cell line inhibition analysis (CCK-8, 72 h). Format: cell-based. The following applies: read-out: Cell growth inhibition GI50 HCI-H460. The protocol:
as §2, §3, §4

The subject of another experiment is HCT-116. Nature of the experiment: Cell line inhibition analysis (CCK-8, 72 h). Format: cell-based. The following applies: Homo sapiens, read-out: Cell growth inhibition GI50 HCT-116. The protocol:
as §2, §3, §4

A further experiment relates to HT-29. Nature of the experiment: Cell line inhibition analysis (CCK-8, 72 h). The settings on record: Homo sapiens, read-out: Cell growth inhibition GI50 HT-29. Format: cell-based. As to the method: as §2, §3, §4
Another experiment relates to MDA-MB-231. In words: Cell line inhibition analysis (CCK-8, 72 h). Format: cell-based. The following applies: Homo sapiens, read-out: Cell growth inhibition GI50 MDA-MB-231. As to the method:
as §2, §3, §4

A further experiment has as its system MIA-Paca-2. Nature of the experiment: Cell line inhibition analysis (CCK-8, 72 h). Format: cell-based. The following applies: Homo sapiens, read-out: Cell growth inhibition GI50 MIA-Paca-2. As to the method: as §2, §3, §4
Another experiment deals with SKOV3. In words: Cell line inhibition analysis (CCK-8, 72 h). Format: cell-based. The settings on record: Homo sapiens, SK-OV-3; read-out: Cell growth inhibition GI50 SKOV3. As to the method:
as §2, §3, §4

Another experiment has as its system SW480. In words: Cell line inhibition analysis (CCK-8, 72 h). Format: cell-based. The following applies: Homo sapiens, read-out: Cell growth inhibition GI50 SW480. As to the method:
as §2, §3, §4

For a further experiment, the system named is SW620. Nature of the experiment: Cell line inhibition analysis (CCK-8, 72 h). The following applies: Homo sapiens, SW-620; read-out: Cell growth inhibition GI50 SW620. Format: cell-based. As to the method:
as §2, §3, §4

In another experiment the target is CDK6/CYCLIN D2 (Homo sapiens, UniProt Q00534). In words: Kinase panel. Format: biochemical. The following applies: CDK6/CYCLIN D2, 1 µM; read-out: residual enzyme activity. An outline of the steps: (§5)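 Compound at 1 µM was screened against a complete panel of purified kinases in biochemical format. Activity left after treatment was calculated and kinases inhibited by 60% or more were selected.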
CDK6/CYCLIN D2, sequence (Q00534 whole entry, species assumed): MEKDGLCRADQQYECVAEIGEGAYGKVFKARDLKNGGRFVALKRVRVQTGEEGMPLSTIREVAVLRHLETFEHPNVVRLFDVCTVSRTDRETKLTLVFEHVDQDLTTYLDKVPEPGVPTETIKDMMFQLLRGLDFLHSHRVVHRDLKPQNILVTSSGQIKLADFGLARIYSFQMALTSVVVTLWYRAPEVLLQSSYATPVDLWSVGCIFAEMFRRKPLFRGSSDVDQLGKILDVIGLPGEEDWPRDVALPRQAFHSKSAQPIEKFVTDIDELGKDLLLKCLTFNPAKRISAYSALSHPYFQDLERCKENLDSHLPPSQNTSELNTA
CDK6/CYCLIN D2, sequence (P30279 whole entry partner, species assumed): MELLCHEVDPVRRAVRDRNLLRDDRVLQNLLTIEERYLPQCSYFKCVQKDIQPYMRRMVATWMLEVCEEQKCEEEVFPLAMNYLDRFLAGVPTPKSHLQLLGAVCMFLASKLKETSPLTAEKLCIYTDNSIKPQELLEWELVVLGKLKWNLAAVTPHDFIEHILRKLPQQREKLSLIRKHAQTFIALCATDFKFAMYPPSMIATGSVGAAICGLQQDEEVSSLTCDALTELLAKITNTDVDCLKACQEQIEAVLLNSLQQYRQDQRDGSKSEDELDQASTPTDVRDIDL

A further experiment deals with CDK19/cyclin C (Homo sapiens, UniProt Q9BWU1). Nature of the experiment: Kinase panel. Format: biochemical. The settings on record: read-out: residual enzyme activity. The gist of the method: as §5
CDK19/cyclin C, sequence (Q9BWU1 whole entry, species assumed): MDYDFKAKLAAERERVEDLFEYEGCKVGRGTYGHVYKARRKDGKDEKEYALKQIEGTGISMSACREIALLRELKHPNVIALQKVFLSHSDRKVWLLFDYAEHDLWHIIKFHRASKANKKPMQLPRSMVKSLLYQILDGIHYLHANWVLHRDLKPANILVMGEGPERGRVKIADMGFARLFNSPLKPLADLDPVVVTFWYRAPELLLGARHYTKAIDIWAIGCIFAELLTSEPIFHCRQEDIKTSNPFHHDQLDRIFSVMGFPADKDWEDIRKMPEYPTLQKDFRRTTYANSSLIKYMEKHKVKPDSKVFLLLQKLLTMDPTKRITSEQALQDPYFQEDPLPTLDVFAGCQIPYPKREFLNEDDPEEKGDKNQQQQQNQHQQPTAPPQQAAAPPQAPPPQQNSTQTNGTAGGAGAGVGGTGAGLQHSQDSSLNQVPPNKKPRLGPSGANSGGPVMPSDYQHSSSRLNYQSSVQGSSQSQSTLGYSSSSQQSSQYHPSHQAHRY
CDK19/cyclin C, sequence (P24863 whole entry partner, species assumed): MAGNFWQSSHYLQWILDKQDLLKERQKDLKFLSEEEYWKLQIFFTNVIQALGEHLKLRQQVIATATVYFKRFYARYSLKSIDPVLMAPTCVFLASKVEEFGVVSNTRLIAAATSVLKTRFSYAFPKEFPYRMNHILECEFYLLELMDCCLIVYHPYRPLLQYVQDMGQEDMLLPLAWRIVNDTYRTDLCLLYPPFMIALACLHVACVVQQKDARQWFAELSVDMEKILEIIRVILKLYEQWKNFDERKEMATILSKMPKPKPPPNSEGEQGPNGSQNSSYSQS
The next experiment addresses CDK8/cyclin C (Homo sapiens, UniProt P49336). Nature of the experiment: Kinase panel. The following applies: read-out: residual enzyme activity. Format: biochemical. An outline of the steps:
as §5

Another experiment addresses DLK/MAP3K12 (Homo sapiens, UniProt Q12852). In words: Kinase panel. Format: biochemical. The following applies: DLK/MAP3K12, 1 µM; read-out: residual enzyme activity. The gist of the method: as §5
Another experiment concerns the target RIPK3 (Homo sapiens, UniProt Q9Y572). Nature of the experiment: Kinase panel. Format: biochemical. The following applies: RIPK3, 1 µM; read-out: residual enzyme activity. An outline of the steps: as §5

Where only a bound is given, the exact number is not on record here.

T1 sequence (Q07912 whole entry): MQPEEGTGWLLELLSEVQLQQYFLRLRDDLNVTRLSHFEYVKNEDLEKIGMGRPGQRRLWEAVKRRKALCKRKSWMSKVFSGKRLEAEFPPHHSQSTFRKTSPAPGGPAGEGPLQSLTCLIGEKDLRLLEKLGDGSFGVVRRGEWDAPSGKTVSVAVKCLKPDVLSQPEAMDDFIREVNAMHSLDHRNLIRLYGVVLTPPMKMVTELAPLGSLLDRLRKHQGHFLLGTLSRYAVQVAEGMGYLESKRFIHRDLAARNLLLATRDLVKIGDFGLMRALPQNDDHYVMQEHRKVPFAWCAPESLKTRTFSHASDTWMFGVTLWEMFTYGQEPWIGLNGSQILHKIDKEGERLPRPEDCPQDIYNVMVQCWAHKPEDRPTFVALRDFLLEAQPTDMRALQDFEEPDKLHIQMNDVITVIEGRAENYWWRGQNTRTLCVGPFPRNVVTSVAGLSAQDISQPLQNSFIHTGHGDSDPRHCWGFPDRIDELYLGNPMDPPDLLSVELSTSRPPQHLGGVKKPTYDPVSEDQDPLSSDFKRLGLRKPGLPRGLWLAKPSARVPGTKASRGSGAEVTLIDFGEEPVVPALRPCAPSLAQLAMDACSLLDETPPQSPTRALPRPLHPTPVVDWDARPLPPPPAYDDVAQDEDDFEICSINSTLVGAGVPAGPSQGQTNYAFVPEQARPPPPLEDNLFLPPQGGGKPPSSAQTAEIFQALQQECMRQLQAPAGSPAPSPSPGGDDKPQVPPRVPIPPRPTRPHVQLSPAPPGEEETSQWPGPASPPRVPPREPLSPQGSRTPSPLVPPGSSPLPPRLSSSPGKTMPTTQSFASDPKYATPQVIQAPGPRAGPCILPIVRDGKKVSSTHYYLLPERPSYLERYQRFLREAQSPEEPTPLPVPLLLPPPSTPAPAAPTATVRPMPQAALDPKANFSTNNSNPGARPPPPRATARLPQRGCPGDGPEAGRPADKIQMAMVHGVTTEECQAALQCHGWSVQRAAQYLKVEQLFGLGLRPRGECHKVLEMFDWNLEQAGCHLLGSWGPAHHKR
T3 sequence (P12931 whole entry): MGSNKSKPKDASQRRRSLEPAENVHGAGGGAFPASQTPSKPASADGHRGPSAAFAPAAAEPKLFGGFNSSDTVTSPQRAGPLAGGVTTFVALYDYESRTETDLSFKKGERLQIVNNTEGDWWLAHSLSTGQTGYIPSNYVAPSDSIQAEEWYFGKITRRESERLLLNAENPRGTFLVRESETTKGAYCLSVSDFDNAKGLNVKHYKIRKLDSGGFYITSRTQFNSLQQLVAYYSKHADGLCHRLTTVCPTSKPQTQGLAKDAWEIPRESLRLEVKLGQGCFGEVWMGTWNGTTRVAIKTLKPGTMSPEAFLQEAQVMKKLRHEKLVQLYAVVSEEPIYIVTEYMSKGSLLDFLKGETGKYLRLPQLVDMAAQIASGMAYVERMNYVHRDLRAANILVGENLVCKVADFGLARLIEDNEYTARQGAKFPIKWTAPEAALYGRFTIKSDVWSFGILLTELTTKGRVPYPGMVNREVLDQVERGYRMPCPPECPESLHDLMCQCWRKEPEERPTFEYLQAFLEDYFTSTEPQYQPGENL
RIPK3, sequence (Q9Y572 whole entry, species assumed): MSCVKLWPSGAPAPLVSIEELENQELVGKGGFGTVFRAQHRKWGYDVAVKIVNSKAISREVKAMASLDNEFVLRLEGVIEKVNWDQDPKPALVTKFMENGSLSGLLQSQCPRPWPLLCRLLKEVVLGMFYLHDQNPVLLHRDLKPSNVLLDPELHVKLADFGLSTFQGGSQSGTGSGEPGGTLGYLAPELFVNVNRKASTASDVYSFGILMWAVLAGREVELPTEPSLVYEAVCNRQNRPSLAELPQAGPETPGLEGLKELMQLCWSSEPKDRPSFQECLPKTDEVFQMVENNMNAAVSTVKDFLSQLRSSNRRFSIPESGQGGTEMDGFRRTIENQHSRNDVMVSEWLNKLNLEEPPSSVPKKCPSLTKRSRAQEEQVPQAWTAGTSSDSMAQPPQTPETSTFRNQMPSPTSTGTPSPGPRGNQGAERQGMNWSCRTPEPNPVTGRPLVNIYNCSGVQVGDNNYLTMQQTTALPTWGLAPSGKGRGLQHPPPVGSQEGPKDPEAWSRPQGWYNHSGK
DLK/MAP3K12, sequence (Q12852 whole entry): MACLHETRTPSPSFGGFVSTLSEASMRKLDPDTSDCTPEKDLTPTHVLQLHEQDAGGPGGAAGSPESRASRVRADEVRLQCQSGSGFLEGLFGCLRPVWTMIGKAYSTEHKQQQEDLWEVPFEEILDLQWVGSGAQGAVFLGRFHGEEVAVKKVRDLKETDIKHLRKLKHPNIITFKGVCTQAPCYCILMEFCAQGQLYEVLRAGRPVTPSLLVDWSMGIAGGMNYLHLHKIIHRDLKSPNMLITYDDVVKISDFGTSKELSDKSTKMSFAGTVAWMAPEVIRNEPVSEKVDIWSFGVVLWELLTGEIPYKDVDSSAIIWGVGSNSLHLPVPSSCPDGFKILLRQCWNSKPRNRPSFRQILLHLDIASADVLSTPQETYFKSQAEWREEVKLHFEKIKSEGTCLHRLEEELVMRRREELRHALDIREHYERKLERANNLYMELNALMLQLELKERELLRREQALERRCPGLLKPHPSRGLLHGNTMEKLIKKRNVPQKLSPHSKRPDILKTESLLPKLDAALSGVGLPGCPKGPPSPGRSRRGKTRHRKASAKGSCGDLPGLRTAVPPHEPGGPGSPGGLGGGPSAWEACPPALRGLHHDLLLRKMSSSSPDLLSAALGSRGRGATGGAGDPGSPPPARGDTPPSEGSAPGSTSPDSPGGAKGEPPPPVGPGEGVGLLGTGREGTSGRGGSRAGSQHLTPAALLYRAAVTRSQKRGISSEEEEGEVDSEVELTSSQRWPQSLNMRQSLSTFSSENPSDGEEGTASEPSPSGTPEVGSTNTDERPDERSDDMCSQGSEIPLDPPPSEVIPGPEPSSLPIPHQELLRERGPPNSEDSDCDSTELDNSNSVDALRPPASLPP
CDK8/cyclin C, sequence (P49336 whole entry, species assumed): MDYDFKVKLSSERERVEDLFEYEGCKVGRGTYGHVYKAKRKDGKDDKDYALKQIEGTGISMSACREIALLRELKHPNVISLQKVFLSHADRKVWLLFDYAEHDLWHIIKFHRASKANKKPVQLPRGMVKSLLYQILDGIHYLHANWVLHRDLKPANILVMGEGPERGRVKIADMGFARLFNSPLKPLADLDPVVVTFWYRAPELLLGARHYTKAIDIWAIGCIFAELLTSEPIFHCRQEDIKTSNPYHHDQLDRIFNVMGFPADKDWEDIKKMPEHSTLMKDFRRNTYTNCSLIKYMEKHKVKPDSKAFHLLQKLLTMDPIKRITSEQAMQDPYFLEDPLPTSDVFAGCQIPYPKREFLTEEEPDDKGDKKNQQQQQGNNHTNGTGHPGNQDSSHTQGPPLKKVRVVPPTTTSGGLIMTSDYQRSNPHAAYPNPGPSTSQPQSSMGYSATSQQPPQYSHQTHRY
CDK8/cyclin C, sequence (P24863 whole entry partner, species assumed): as the sequence (P24863 whole entry partner, species assumed) above

For orientation: IC50 means the concentration that inhibits the measured activity by half. The low end stands for greater potency in that assay, the high end for weaker potency in that assay. Broadly, the GI50 is the concentration at which growth is held to half of that of the control. In the case of `Cc1cn(-c2cc(C(=O)Nc3ccc(C)c(N4Cc5cnc(NC6CC6)nc5C5(CC5)C4=O)c3)cc(C(F)(F)F)c2)cn1` [Compound 8, N-(3-(2'-(cyclopropylamino)-7'-oxo-5'H-spiro[cyclopropane-1,8'-pyrido[4,3-d]pyrimidine]-6'(7'H)-yl)-4-methylphenyl)-3-(4-methyl-1H-imidazol-1-yl)-5-(trifluoromethyl)benzamide], the IC50 at ACK1 was under 0.01 µM; against BMX it was under 0.01 µM; on Src, 0.01 to 0.1 µM. In addition, the GI50 in the experiment with A172 is under 1 µM; in the experiment on A549 it was over 10 µM; in the experiment with AsPC-1, 1 to 5 µM; with DLD-1 it was 1 to 5 µM; with HCI-H460, 1 to 5 µM; in the experiment with HCT-116 it was under 1 µM. Also, the GI50 is over 10 µM in the experiment with HT-29; 1 to 5 µM in the experiment on MDA-MB-231; under 1 µM with MIA-Paca-2; 1 to 5 µM in the experiment with SKOV3; 1 to 5 µM in the experiment with SW480; 1 to 5 µM with SW620. Besides, the remaining activity at 1 µM on CDK6/CYCLIN D2 was over 40%.
Consider `Cc1ccc(Nc2ncc3c(n2)C2(CC2)C(=O)N(c2cc(NC(=O)c4cccc(C(F)(F)F)c4)ccc2C)C3)cn1` [Compound 51, N-(4-methyl-3-(2'-((6-methylpyridin-3-yl)amino)-7'-oxo-5'H-spiro[cyclopropane-1,8'-pyrido[4,3-d]pyrimidine]-6'(7'H)-yl)phenyl)-3-(trifluoromethyl)benzamide], for which the IC50 against ACK1 is 0.01 to 0.1 µM; against BMX, under 0.01 µM; at Src, under 0.01 µM. The GI50 is under 1 µM in the experiment on A172; 1 to 5 µM in the experiment with A549; under 1 µM in the experiment on AsPC-1; 1 to 5 µM with DLD-1; under 1 µM in the experiment on HCI-H460; under 1 µM in the experiment with HCT-116. The GI50 was 1 to 5 µM with HT-29; under 1 µM with MDA-MB-231; under 1 µM in the experiment on MIA-Paca-2; under 1 µM in the experiment on SKOV3; under 1 µM with SW480; 1 to 5 µM with SW620. For the same compound, the remaining activity at 1 µM was over 40% on CDK19/cyclin C, over 40% at CDK8/cyclin C, over 40% at DLK/MAP3K12 and at most 40% at RIPK3.
